pEC50, pIC50: −log10 of the molar value. Structures can show the parent of a compound that is named as a salt. Where two headings read alike, the source gives them in different places.
Assays:
[1] = system: HMC-1-8 cells; assay: Antiproliferation assay HMC-1-8 (Assay 7); assay type: cell-based; details: read-out: Antiproli HMC-1-8 IC50 median; 72 h, CellTiter-Glo
Summary of the method: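 Growth inhibition is determined from ATP luminescence (CellTiter-Glo) following 72 h incubation with compound. Time-zero cells are measured the same way for baseline, and IC50s are referenced to DMSO controls.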

[2] = target: BCL-2 (Homo sapiens (Human), UniProt P10415); assay: Protein-protein interaction assay BCL-2/Bad BH3 peptide (BCL-2 assay, TR-FRET); assay type: binding; details: read-out: BCL-2 Assay IC50 (median)
Method: Assay 3 Protein-Protein Interaction Assay: BCL-2/Bad BH3 Peptide (BCL-2 Assay)
The dose-dependent inhibition by the compounds described in this invention of the interaction between BCL-2 and the BH3 domain of Bad (both human) was determined using a steady state binding competition assay with time-resolved fluorescence energy transfer (TR-FRET) readout. For that purpose BCL-2 (amino acids 1-211, C-terminal fused to a hexahistidine (6×His) tag (SEQ ID 5) and a synthetic Bad BH3-derived peptide of sequence Biotin-PEG2-PEG2-[…]-Nle-[…]-amide (SEQ ID 4) served as protein receptor and tracer ligand respectively. The recombinant BCL-2 protein (expressed in E. coli) was purchased from BPS Bioscience (San Diego, Calif., USA). The Bad BH3-derived peptide can be obtained from e.g. Biosyntan (Berlin, Germany).
In the assay 11 different concentrations of each compound (0.1 nM, 0.33 nM, 1.1 nM, 3.8 nM, 13 nM, 44 nM, 0.15 μM, 0.51 μM, 1.7 μM, 5.9 μM and 20 μM) were typically measured as duplicates in the same microtiter plate. For that, 100-fold concentrated DMSO solutions were prepared by serial dilutions (1:3.4) of a 2 mM stock solution in a clear, 384-well microtiter plate (Greiner Bio-One, Frickenhausen, Germany). From there, 50 nl were transferred in a dark test plate (Greiner Bio-One, Frickenhausen, Germany). The assay was initiated by addition of 2 μL of a 2,5-fold concentrated His-BCL-2 solution (usually for a 1 nM end concentration in 5 μL reaction volume) in aqueous assay buffer [50 mM Tris/HCl pH 7, 100 mM sodium chloride (NaCl), 50 mM potassium fluoride (KF), 0.005% Tween-20, 2 mM DTT, 0.1% bovine gamma globulin (BGG)] to the compounds in the assay plate. This was followed by a 10-minute incubation step at 22° C. for pre-equilibration of the putative complex between His-BCL-2 and the compounds. After that, 3 μL of a 1.67-fold concentrated solution (in assay buffer) consisting of Bad BH3-derived peptide (1 nM end concentration) and TR-FRET detection reagents [1.67 nM anti-His-Eu cryptate and 1.67 nM streptavidin-XL665 (both from Cisbio Bioassays, Codolet, France)], were added.
The mixture was incubated in the dark for one hour at 22° C. and then overnight at 4° C. The formation of BCL-2/Bad complexes was determined by measuring the resonance energy transfer of the anti-His-Eu-cryptate antibody to the streptavidin-XL665 present in the reaction. For that purpose, the fluorescence emission at 620 nm and 665 nm after excitation at 330-350 nm was measured in a TR-FRET measuring instrument, for instance a Rubystar or a Pherastar (both from BMG Lab Technologies, Offenburg, Germany) or a Viewlux (Perkin-Elmer). The ratio of the emission at 665 nm and at 622 nm was used as indicator of the amount of BCL-2/Bad complexes present.
The resulting data (ratio) were normalized, taking 0% inhibition as the mean value of control measurements (usually 32 data points) where all reagents were included. In this case 50 nl DMSO were used instead of compounds. […] IC50 values were determined by regression analysis based on a 4 parameter equation (minimum, maximum, IC50, Hill; Y=Max+(Min−Max)/(1+(X/IC50)^Hill) using the Screener Software (Genedata).

[3] = system: SUDHL10 cells; assay: Induction of caspase-3/7 activity in SUDHL10 cells (Assay 4); assay type: cell-based
Summary of the method: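 Read-out: Caspase-Glo 3/7 luminescence (1 h, 37 °C) after cells, plated overnight, were treated with compounds for 3 h at 37 °C. Signal corrected for cell-free medium background and expressed relative to DMSO control mean.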

[4] = system: SUDHL5 cells; assay: Induction of cytotoxicity in SUDHL5 cells (Assay 6); assay type: cell-based
Summary of the method: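 SUDHL5 and SUDHL10 cells plated and held overnight at 37° C, then incubated 5 h at 37° C with compound. Viability measured by CellTiter-Glo luminescence after 15 min shaking at room temperature. Cell-free medium wells served as control.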

[5] = read-out: Caspase SUDHL10 EC50 (median); caspase-3/7 induction, 3 h
[6] = 5 h, CellTiter-Glo; read-out: Cytotox SUDHL5 IC50 (median)
[7] = caspase-3/7 induction, 3 h; read-out: Caspase SUDHL10 EC50 (median)
[8] = read-out: Cytotox SUDHL5 IC50 (median); 5 h, CellTiter-Glo
[9] = Homo sapiens, SU-DHL-5, 5 h, 5 h, CellTiter-Glo; read-out: Cytotox SUDHL5 IC50 (median)
[10] = Homo sapiens, SU-DHL10, 3 h, caspase-3/7 induction, 3 h; read-out: Caspase SUDHL10 EC50 (median)

Chain of BCL-2 (P10415 1-211): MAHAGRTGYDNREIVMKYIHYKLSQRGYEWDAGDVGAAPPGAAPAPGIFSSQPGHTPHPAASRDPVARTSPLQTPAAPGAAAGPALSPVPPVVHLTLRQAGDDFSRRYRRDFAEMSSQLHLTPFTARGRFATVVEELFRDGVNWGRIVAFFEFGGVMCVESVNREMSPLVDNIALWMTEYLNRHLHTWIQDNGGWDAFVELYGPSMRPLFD

| Structure (SMILES) | pIC50 [1] | pIC50 [2] | pEC50 [3, 5] | pIC50 [4, 6] | pEC50 [3, 7] | pIC50 [4, 8] | pIC50 [4, 9] | pEC50 [3, 10] |
| --- | --- | --- | --- | --- | --- | --- | --- | --- |
| CCc1c2c(nn1C)C(CCN1CCN(C)CC1)OCCCCn1c(C(=O)O)c(CCCOc3cccc4cc(F)ccc34)c3ccc(Cl)c-2c31 (racemic) [Example 68, 4-chloro-3-ethyl-7-{3-[(6-fluoronaphthalen-1-yl)oxy]propyl}-2-methyl-(15-rac)-[2-(4-methylpiperazin-1-yl)ethyl]-2,10,11,12,13,15-hexahydropyrazolo[4′,3′:9,10][1,6]oxazacycloundecino[8,7,6-hi]indole-8-carboxylic Acid—N-ethylethanamine Salt (Mixture 1 of Stereoisomers)] | 5.58 | < 4.70 | 7.09 | – | – | – | – | – |
| Cc1c2c(nn1C)C(CCN1CCOCC1)OCCCCn1c(C(=O)O)c(CCCOc3cccc4ccccc34)c3ccc(Cl)c-2c31 (single isomer, unassigned; enantiomer 2) [Example 15, 4-chloro-2,3-dimethyl-15-[2-(morpholin-4-yl)ethyl]-7-{3-[(naphthalen-1-yl)oxy]propyl}-2,10,11,12,13,15-hexahydropyrazolo[4′,3′:9,10][1,6]oxazacycloundecino[8,7,6-hi]indole-8-carboxylic Acid (Enantiomer 2)] | – | < 4.70 | – | 5.60 | 4.96 | – | – | – |
| CCc1c2c(nn1C)C(CCN1CCC(F)(F)C1)OCCCCn1c(C(=O)O)c(CCCOc3cccc4cc(F)ccc34)c3ccc(Cl)c-2c31 (single isomer, unassigned; enantiomer 1) [Example 56, 4-chloro-15-[2-(3,3-difluoropyrrolidin-1-yl)ethyl]-3-ethyl-7-{3-[(6-fluoronaphthalen-1-yl)oxy]propyl}-2-methyl-2,10,11,12,13,15-hexahydropyrazolo[4′,3′:9,10][1,6]oxazacycloundecino[8,7,6-hi]indole-8-carboxylic Acid—N-ethylethanamine Salt (Enantiomer 1)] | – | < 4.70 | 7.70 | 7.68 | – | – | – | – |
| CCc1c2c(nn1C)C(CCN1CCOCC1)OCCCCn1c(C(=O)O)c(CCCOc3cccc4ccccc34)c3ccc(F)c-2c31 (single isomer, unassigned; enantiomer 2) [Example 12, 3-ethyl-4-fluoro-2-methyl-15-[2-(morpholin-4-yl)ethyl]-7-{3-[(naphthalen-1-yl)oxy]propyl}-2,10,11,12,13,15-hexahydropyrazolo[4′,3′:9,10][1,6]oxazacycloundecino[8,7,6-hi]indole-8-carboxylic Acid—N-ethylethanamine Salt (Enantiomer 2)] | – | < 4.70 | 5.15 | 5.48 | – | – | – | – |
| Cc1c2c(nn1C)C(C)OCCCCn1c(C(=O)O)c(CCCOc3cccc4ccccc34)c3cccc-2c31 (single isomer, unassigned; stereoisomer 2) [Example 3, 2,3,15-trimethyl-7-[3-(naphthalen-1-yloxy)propyl]-2,10,11,12,13,15-hexahydropyrazolo[4′,3′:9,10][1,6]oxazacycloundecino[8,7,6-hi]indole-8-carboxylic Acid Trifluoroacetic Acid Salt (Stereoisomer 2)] | – | < 4.70 | < 4.48 | – | – | < 4.48 | – | – |
| Cc1c2c(nn1C)C(C)OCCCCn1c(C(=O)O)c(CCCOc3cccc4ccccc34)c3cccc-2c31 (single isomer, unassigned; stereoisomer 1) [Example 2, 2,3,15-trimethyl-7-[3-(naphthalen-1-yloxy)propyl]-2,10,11,12,13,15-hexahydropyrazolo[4′,3′:9,10][1,6]oxazacycloundecino[8,7,6-hi]indole-8-carboxylic Acid Trifluoroacetic Acid Salt (Stereoisomer 1)] | – | < 4.70 | 5.60 | – | – | 5.89 | – | – |
| Cc1c2c(nn1C)C(C)OCCCCn1c(C(=O)O)c(CCCOc3cccc4ccccc34)c3cccc-2c31 (racemic) [Example 1, (rac)-2,3,15-trimethyl-7-[3-(naphthalen-1-yloxy)propyl]-2,10,11,12,13,15-hexahydropyrazolo[4′,3′:9,10][1,6]oxazacycloundecino[8,7,6-hi]indole-8-carboxylic Acid (Mixture of Stereoisomers)] | – | < 4.70 | – | – | – | – | 5.55 | 5.23 |
| Cc1c2c(nn1C)C(CCN1CCOCC1)OCCCCn1c(C(=O)O)c(CCCOc3cccc4ccccc34)c3ccc(F)c-2c31 (racemic) [Example 7, (rac)-4-fluoro-2,3-dimethyl-15-[2-(morpholin-4-yl)ethyl]-7-[3-(naphthalen-1-yloxy)propyl]-2,10,11,12,13,15-hexahydropyrazolo[4′,3′:9,10][1,6]oxazacycloundecino[8,7,6-hi]indole-8-carboxylic Acid] | – | < 4.70 | – | – | – | – | 6.62 | 6.44 |
| Cc1c2c(nn1C)C(CCN1CCOCC1)OCCCCn1c(C(=O)O)c(CCCOc3cccc4ccccc34)c3ccc(Cl)c-2c31 (racemic) [Example 13, (rac)-4-chloro-2,3-dimethyl-15-[2-(morpholin-4-yl)ethyl]-7-{3-[(naphthalen-1-yl)oxy]propyl}-2,10,11,12,13,15-hexahydropyrazolo[4′,3′:9,10][1,6]oxazacycloundecino[8,7,6-hi]indole-8-carboxylic Acid] | – | < 4.70 | – | – | – | – | 7.05 | 6.85 |
| Cc1c2c(nn1C)C(CCN1CCOCC1)OCCCCn1c(C(=O)O)c(CCCOc3cccc4ccccc34)c3ccc(F)c-2c31 (single isomer, unassigned; enantiomer 2) [Example 9, 4-fluoro-2,3-dimethyl-15-[2-(morpholin-4-yl)ethyl]-7-{3-[(naphthalen-1-yl)oxy]propyl}-2,10,11,12,13,15-hexahydropyrazolo[4′,3′:9,10][1,6]oxazacycloundecino[8,7,6-hi]indole-8-carboxylic Acid—N-ethylethanamine Salt (Enantiomer 2)] | – | < 4.70 | 4.92 | 5.27 | – | – | – | – |
| Cc1c2c(nn1C)C(CCN1CCOCC1)OCCCCn1c(C(=O)O)c(CCCOc3cccc4ccccc34)c3cccc-2c31 (single isomer, unassigned; stereoisomer 2) [Example 6, 2,3-dimethyl-15-[2-(morpholin-4-yl)ethyl]-7-[3-(naphthalen-1-yloxy)propyl]-2,10,11,12,13,15-hexahydropyrazolo[4′,3′:9,10][1,6]oxazacycloundecino[8,7,6-hi]indole-8-carboxylic Acid (Stereoisomer 2)] | – | < 4.70 | – | 4.66 | 4.51 | – | – | – |
| Cc1c2c(nn1C)C(CCN1CCOCC1)OCCCCn1c(C(=O)O)c(CCCOc3cccc4cc(F)ccc34)c3ccc(F)c-2c31 (racemic) [Example 19, (rac)-4-fluoro-7-{3-[(6-fluoronaphthalen-1-yl)oxy]propyl}-2,3-dimethyl-15-[2-(morpholin-4-yl)ethyl]-2,10,11,12,13,15-hexahydropyrazolo[4′,3′:9,10][1,6]oxazacycloundecino[8,7,6-hi]indole-8-carboxylic Acid] | – | < 4.70 | – | – | – | – | 7.09 | 7.10 |
